Values joined by “and” are separate entries in the source; they are usually repeats but may differ in a detail not shown here. Identical values can stand only once.
Tested on: GEMS receptors with CBPvene (Bcl2–LD3 and Bcl2high variants), STAT3-driven SEAP in HEK293T cells
Test: GEMS SEAP reporter assay, CBPvene (Bcl2high, LD3-v and Bcl2-v variants) with venetoclax
Format: cell-based
Conditions: for SEAP / SEAP normalized (max=100): Supp Fig 10a
[1] = CBPVene-v5-Bcl2v2, Venetoclax 1000 nM
[2] = CBPVene-v5-Bcl2v2, Venetoclax 3160 nM
[3] = CBPVene-v5-Bcl2v2, Venetoclax 10000 nM
[4] = CBPVene-v5-LD3v1, Venetoclax 1 nM
[5] = CBPVene-v5-LD3v1, Venetoclax 3.16 nM
[6] = CBPVene-v5-LD3v1, Venetoclax 10 nM
[7] = CBPVene-v5-LD3v1, Venetoclax 31.6 nM
[8] = CBPVene-v5-LD3v1, Venetoclax 316 nM
[9] = CBPVene-v5-LD3v1, Venetoclax 1000 nM
[10] = CBPVene-v5-LD3v1, Venetoclax 10000 nM

CC1(C)CCC(CN2CCN(c3ccc(C(=O)NS(=O)(=O)c4ccc(NCC5CCOCC5)c([N+](=O)[O-])c4)c(Oc4cnc5[nH]ccc5c4)c3)CC2)=C(c2ccc(Cl)cc2)C1 [Venetoclax]
Normalized data Figure 5f [1]: 77.3797 and 77.4841 and 64.4738 | Raw data Figure 5f [1]: 141.449 and 149.007 and 144.09 | Normalized data Figure 5f [2]: 35.229 and 32.7238 and 23.2546 | Raw data Figure 5f [2]: 64.398 and 62.9303 and 51.9708 | Normalized data Figure 5f [3]: 15.1423 and 11.3283 and 13.9843 | Raw data Figure 5f [3]: 27.6798 and 21.7852 and 31.253 | Raw data of Independent repeat of CBPVene-v5 vs CBPVene-v5-LD3v1 (CBPVene-v5-LD3v1, Venetoclax 0.01 nM): 12.511 and 11.9088 and 12.8792 | Normalized data Figure 5c [4]: 16.3682 and 15.9533 and 20.5713 | Raw data Figure 5c [4]: 17.8707 and 19.0514 and 21.7836 | Raw data of Independent repeat of CBPVene-v5 vs CBPVene-v5-LD3v1 [4]: 12.1852 and 11.7838 and 11.0502 | Normalized data Figure 5c [5]: 15.1322 and 15.2538 and 18.8062 | Raw data Figure 5c [5]: 16.5212 and 18.216 and 19.9144 | Raw data of Independent repeat of CBPVene-v5 vs CBPVene-v5-LD3v1 [5]: 10.1265 and 10.196 and 11.563 | Normalized data Figure 5c [6]: 22.3408 and 21.0089 and 24.5666 | Raw data Figure 5c [6]: 24.3915 and 25.0888 and 26.0143 | Raw data of Independent repeat of CBPVene-v5 vs CBPVene-v5-LD3v1 [6]: 13.7645 and 12.6779 and 10.7132 | Normalized data Figure 5c [7]: 35.5947 and 28.4669 and 38.0182 | Raw data Figure 5c [7]: 38.8619 and 33.9951 and 40.2586 | Raw data of Independent repeat of CBPVene-v5 vs CBPVene-v5-LD3v1 [7]: 17.7633 and 18.8924 and 25.5 | Raw data of Independent repeat of CBPVene-v5 vs CBPVene-v5-LD3v1 (CBPVene-v5-LD3v1, Venetoclax 100 nM): 38.3822 and 37.0306 and 47.6081 | Normalized data Figure 5c [8]: 100 | Raw data Figure 5c [8]: 109.179 and 119.42 and 105.893 | Raw data of Independent repeat of CBPVene-v5 vs CBPVene-v5-LD3v1 [8]: 60.7806 and 63.7576 and 57.9589 | Normalized data Figure 5c [9]: 77.7899 and 68.2523 and 65.7986 | Raw data Figure 5c [9]: 84.9301 and 81.5067 and 69.6762 | Raw data of Independent repeat of CBPVene-v5 vs CBPVene-v5-LD3v1 [9]: 40.6135 and 38.6218 and 45.893 | Raw data of Independent repeat of CBPVene-v5 vs CBPVene-v5-LD3v1 (CBPVene-v5-LD3v1, Venetoclax 3160 nM): 20.9864 and 23.9183 and 23.9906 | Normalized data Figure 5c [10]: 10.3166 and 8.27 and 9.621 | Raw data Figure 5c [10]: 11.2636 and 9.876 and 10.1879 | SEAP (U/L) (Figure 4h, Venetoclax 1 nM, representative data and independent repeats 1, 2 (triplicates)): 40.3558 U/L and 36.3798 U/L and 44.7796 U/L and 29.5956 U/L and 26.0853 U/L and 29.9849 U/L | SEAP (Bcl2-v1, venetoclax 316 nM): 16.9918 | SEAP normalized (max=100) (Bcl2-v1, venetoclax 316 nM): 72.9686 | SEAP (Bcl2-v1, venetoclax 1000 nM): 11.8168 | SEAP normalized (max=100) (Bcl2-v1, venetoclax 1000 nM): 50.7451 | SEAP (Bcl2-v1, venetoclax 3160 nM): 18.4889 | SEAP normalized (max=100) (Bcl2-v1, venetoclax 3160 nM): 79.3975 | SEAP (Bcl2-v1, venetoclax 10000 nM): 5.997 | SEAP normalized (max=100) (Bcl2-v1, venetoclax 10000 nM): 25.7548 | SEAP (Bcl2-v2, venetoclax 316 nM): 33.4045 | SEAP normalized (max=100) (Bcl2-v2, venetoclax 316 nM): 100 | SEAP (Bcl2-v2, venetoclax 1000 nM): 18.2725 | SEAP normalized (max=100) (Bcl2-v2, venetoclax 1000 nM): 54.7009 | SEAP (Bcl2-v2, venetoclax 3160 nM): 17.6043 | SEAP normalized (max=100) (Bcl2-v2, venetoclax 3160 nM): 52.7004 | SEAP (Bcl2-v2, venetoclax 10000 nM): 8.798 | SEAP normalized (max=100) (Bcl2-v2, venetoclax 10000 nM): 26.337 | SEAP (Bcl2-v3, venetoclax 316 nM): 24.8752 | SEAP normalized (max=100) (Bcl2-v3, venetoclax 316 nM): 70.756 | SEAP (Bcl2-v3, venetoclax 1000 nM): 15.674 | SEAP normalized (max=100) (Bcl2-v3, venetoclax 1000 nM): 44.5837 | SEAP (Bcl2-v3, venetoclax 3160 nM): 8.48 | SEAP normalized (max=100) (Bcl2-v3, venetoclax 3160 nM): 24.1195 | SEAP (Bcl2-v3, venetoclax 10000 nM): 5.027 | SEAP normalized (max=100) (Bcl2-v3, venetoclax 10000 nM): 14.2997 | SEAP (Bcl2-v4, venetoclax 316 nM): 20.3221 | SEAP normalized (max=100) (Bcl2-v4, venetoclax 316 nM): 44.5121 | SEAP (Bcl2-v4, venetoclax 1000 nM): 12.5122 | SEAP normalized (max=100) (Bcl2-v4, venetoclax 1000 nM): 27.4059 | SEAP (Bcl2-v4, venetoclax 3160 nM): 8.91 | SEAP normalized (max=100) (Bcl2-v4, venetoclax 3160 nM): 19.5153 | SEAP (Bcl2-v4, venetoclax 10000 nM): 6.178 | SEAP normalized (max=100) (Bcl2-v4, venetoclax 10000 nM): 13.5319 | SEAP (Bcl2-v5, venetoclax 316 nM): 16.3938 | SEAP normalized (max=100) (Bcl2-v5, venetoclax 316 nM): 41.8642 | SEAP (Bcl2-v5, venetoclax 1000 nM): 8.859 | SEAP normalized (max=100) (Bcl2-v5, venetoclax 1000 nM): 22.6219 | SEAP (Bcl2-v5, venetoclax 3160 nM): 8.087 | SEAP normalized (max=100) (Bcl2-v5, venetoclax 3160 nM): 20.652 | SEAP (Bcl2-v5, venetoclax 10000 nM): 5.778 | SEAP normalized (max=100) (Bcl2-v5, venetoclax 10000 nM): 14.7539 | SEAP (Bcl2-v6, venetoclax 316 nM): 25.9953 | SEAP normalized (max=100) (Bcl2-v6, venetoclax 316 nM): 62.1077

— article PMC11062894, “Protein-based bandpass filters for controlling cellular signaling with chemical inputs” (Nature Chemical Biology, 2023)
